Laboratory results taken from patent publication US6716831B1, “2,4-diamino-pyrimidine deprivatives having anti-cell proliferative activity” (AstraZeneca AB, priority 1999, dated 2004).

Molecular target: T1, human Focal Adhesion Kinase (FAK) (Homo sapiens, UniProt Q05397)
T1 construct: FAK (full length human cDNA described by Andre et al); 6-histidine tag (N); made in house; host or cells: Sf21 insect cells (baculovirus, pFastbac 1)
Test: FAK3 Kinase Inhibition Assay
Type: biochemical
Details: in vitro enzyme assay, Poly (Glu, Ala, Tyr) substrate; read-out: FAK inhibitory activity IC50
Text: FAK3 Kinase Inhibition Assay
This assay determines the ability of a test compound to inhibit tyrosine kinase activity of human Focal Adhesion Kinase (FAK).
DNA encoding FAK is obtained by total gene synthesis (Edwards M, International Biotechnology Lab 5(3), 19-25, 1987) or by cloning. These are then expressed in a suitable expression system to obtain polypeptide with tyrosine kinase activity.
Active FAK protein has been previously expressed in a baculovirus system using a similar N-terminal 6-histidine tag (Protein Expression And Purification, 1996, 7: 12-18). The human FAK cDNA was cloned into the baculovirus transplacement vector, pFastbac 1 (Life Technologies), and the recombinant construct was co-transfected into insect cells (for example Spodoptera frugiperda 21(Sf21)) with viral DNA to prepare recombinant baculovirus (details of the methods for the assembly of recombinant DNA molecules and the preparation and use of recombinant baculovirus can be found in standard texts for example Sambrook et al, 1989, Molecular cloning—A Laboratory Manual, 2nd edition, Cold Spring Harbour Laboratory Press and O'Reilly et al, 1992, Baculovirus Expression Vectors—A Laboratory Manual, W.H. Freeman and Co, New York. Details specific to the use of the pFastbac (‘Bac to Bac’) system are provided in Anderson et al., 1995, FOCUS (Life Technologies Bulletin Magazine), 17, p53.) […]

T1 sequence (Q05397 whole entry): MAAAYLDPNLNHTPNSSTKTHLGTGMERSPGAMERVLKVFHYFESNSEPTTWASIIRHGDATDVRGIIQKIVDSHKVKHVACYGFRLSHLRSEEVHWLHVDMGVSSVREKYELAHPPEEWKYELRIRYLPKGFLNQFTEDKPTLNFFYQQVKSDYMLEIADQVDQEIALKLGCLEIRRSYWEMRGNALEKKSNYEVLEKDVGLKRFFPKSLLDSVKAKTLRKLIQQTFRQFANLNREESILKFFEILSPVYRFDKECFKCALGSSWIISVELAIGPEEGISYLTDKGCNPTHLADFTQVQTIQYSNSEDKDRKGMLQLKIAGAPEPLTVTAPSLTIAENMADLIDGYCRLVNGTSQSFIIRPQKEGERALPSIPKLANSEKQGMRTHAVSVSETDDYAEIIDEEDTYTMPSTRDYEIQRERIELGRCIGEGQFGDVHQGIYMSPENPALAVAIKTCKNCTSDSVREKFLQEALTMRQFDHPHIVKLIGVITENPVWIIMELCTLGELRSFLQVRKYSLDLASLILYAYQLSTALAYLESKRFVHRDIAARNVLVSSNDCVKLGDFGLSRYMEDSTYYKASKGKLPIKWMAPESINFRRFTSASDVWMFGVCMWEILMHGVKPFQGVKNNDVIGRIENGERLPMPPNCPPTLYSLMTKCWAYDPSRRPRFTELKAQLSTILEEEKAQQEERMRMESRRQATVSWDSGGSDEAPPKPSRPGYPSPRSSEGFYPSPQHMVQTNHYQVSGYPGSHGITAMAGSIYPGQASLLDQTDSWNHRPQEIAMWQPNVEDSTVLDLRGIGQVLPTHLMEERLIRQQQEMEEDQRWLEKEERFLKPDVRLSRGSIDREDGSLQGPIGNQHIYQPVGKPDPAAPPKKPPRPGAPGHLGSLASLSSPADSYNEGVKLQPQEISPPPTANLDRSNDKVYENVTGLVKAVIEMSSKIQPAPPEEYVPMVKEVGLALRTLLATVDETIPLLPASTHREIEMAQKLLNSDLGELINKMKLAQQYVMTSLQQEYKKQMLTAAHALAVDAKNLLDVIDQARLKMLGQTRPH

IC50: 0.553 µM
Structure (SMILES): CN(C)CC(O)COc1ccc(Nc2nccc(N3CCc4cc(Br)ccc43)n2)cc1 (stereo not shown) [Example 3]
